Numbers after ± are expanded uncertainties.
Experiment: molar heat capacity at constant pressure
Conditions: 101.33 kPa, Small (less than 1 g) adiabatic calorimetry

With `COc1ccc(C2(c3ccc(OC)c(C)c3)OC(=O)c3ccccc32)cc1C` [3,3-bis(4-methoxy-3-methylphenyl)-1(3H)-isobenzofuranone] the “molar heat capacity at constant pressure” value (295.38 K, Glass) was 465.32 ± 1.7 J/K/mol, the “molar heat capacity at constant pressure” value (297.4 K, Crystal) was 449.56 ± 1.7 J/K/mol and the “molar heat capacity at constant pressure” value (298.34 K, Glass) was 470.91 ± 1.8 J/K/mol. For the same compound, the “molar heat capacity at constant pressure” value (301.33 K, Glass) was 473.58 ± 1.8 J/K/mol, the “molar heat capacity at constant pressure” value (303.26 K, Crystal) was 457.78 ± 1.7 J/K/mol and the “molar heat capacity at constant pressure” value (304.32 K, Glass) was 491.69 ± 1.8 J/K/mol. The “molar heat capacity at constant pressure” value (306.21 K, Crystal) was 461.74 ± 1.7 J/K/mol, the “molar heat capacity at constant pressure” value (307.3 K, Glass) was 525.07 ± 2 J/K/mol and the “molar heat capacity at constant pressure” value (309.18 K, Crystal) was 465.91 ± 1.7 J/K/mol. The “molar heat capacity at constant pressure” value (310.26 K, Glass) was 604.32 ± 2.2 J/K/mol, the “molar heat capacity at constant pressure” value (312.18 K, Crystal) was 470.02 ± 1.8 J/K/mol and the “molar heat capacity at constant pressure” value (313.23 K, Glass) was 614.14 ± 2.2 J/K/mol. The “molar heat capacity at constant pressure” value (315.19 K, Crystal) was 474.07 ± 1.8 J/K/mol, the “molar heat capacity at constant pressure” value (316.23 K, Metastable liquid) was 622.32 ± 2.7 J/K/mol and the “molar heat capacity at constant pressure” value (318.23 K, Crystal) was 478.43 ± 1.8 J/K/mol. For the same compound, the “molar heat capacity at constant pressure” value (319.25 K, Metastable liquid) was 625.96 ± 2.7 J/K/mol, the “molar heat capacity at constant pressure” value (321.28 K, Crystal) was 482.81 ± 1.8 J/K/mol and the “molar heat capacity at constant pressure” value (322.29 K, Metastable liquid) was 629.84 ± 2.7 J/K/mol. For the same compound, the “molar heat capacity at constant pressure” value (324.35 K, Crystal) was 487.1 ± 1.8 J/K/mol, the “molar heat capacity at constant pressure” value (325.35 K, Metastable liquid) was 633.32 ± 2.7 J/K/mol and the “molar heat capacity at constant pressure” value (327.44 K, Crystal) was 491.54 ± 1.8 J/K/mol. The “molar heat capacity at constant pressure” value (328.43 K, Metastable liquid) was 636.56 ± 2.8 J/K/mol, the “molar heat capacity at constant pressure” value (330.55 K, Crystal) was 495.88 ± 1.8 J/K/mol and the “molar heat capacity at constant pressure” value (331.52 K, Metastable liquid) was 639.81 ± 2.8 J/K/mol. For the same compound, the “molar heat capacity at constant pressure” value (333.68 K, Crystal) was 500.17 ± 1.9 J/K/mol, the “molar heat capacity at constant pressure” value (334.64 K, Metastable liquid) was 642.98 ± 2.8 J/K/mol and the “molar heat capacity at constant pressure” value (336.81 K, Crystal) was 504.57 ± 1.9 J/K/mol. The “molar heat capacity at constant pressure” value (337.78 K, Metastable liquid) was 646.52 ± 2.8 J/K/mol, the “molar heat capacity at constant pressure” value (339.94 K, Crystal) was 508.36 ± 1.9 J/K/mol and the “molar heat capacity at constant pressure” value (340.93 K, Metastable liquid) was 649.55 ± 2.8 J/K/mol. The “molar heat capacity at constant pressure” value (343.08 K, Crystal) was 512.55 ± 1.9 J/K/mol, the “molar heat capacity at constant pressure” value (344.11 K, Metastable liquid) was 652.75 ± 2.8 J/K/mol and the “molar heat capacity at constant pressure” value (346.25 K, Crystal) was 517.45 ± 1.9 J/K/mol. The “molar heat capacity at constant pressure” value (347.3 K, Metastable liquid) was 656.04 ± 2.8 J/K/mol, the “molar heat capacity at constant pressure” value (349.43 K, Crystal) was 521.7 ± 1.9 J/K/mol and the “molar heat capacity at constant pressure” value (350.51 K, Metastable liquid) was 659.31 ± 2.8 J/K/mol. For the same compound, the “molar heat capacity at constant pressure” value (352.63 K, Crystal) was 525.97 ± 1.9 J/K/mol, the “molar heat capacity at constant pressure” value (353.74 K, Metastable liquid) was 662.1 ± 2.9 J/K/mol and the “molar heat capacity at constant pressure” value (355.85 K, Crystal) was 530.55 ± 2 J/K/mol. For the same compound, the “molar heat capacity at constant pressure” value (356.97 K, Metastable liquid) was 665.61 ± 2.9 J/K/mol, the “molar heat capacity at constant pressure” value (359.09 K, Crystal) was 535.23 ± 2 J/K/mol and the “molar heat capacity at constant pressure” value (360.22 K, Metastable liquid) was 669.03 ± 2.9 J/K/mol. The “molar heat capacity at constant pressure” value (362.34 K, Crystal) was 540.42 ± 2 J/K/mol, the “molar heat capacity at constant pressure” value (363.49 K, Metastable liquid) was 672.55 ± 2.9 J/K/mol and the “molar heat capacity at constant pressure” value (365.61 K, Crystal) was 545.96 ± 2 J/K/mol. For the same compound, the “molar heat capacity at constant pressure” value (366.77 K, Metastable liquid) was 676.27 ± 2.9 J/K/mol, the “molar heat capacity at constant pressure” value (368.9 K, Crystal) was 551.67 ± 2 J/K/mol and the “molar heat capacity at constant pressure” value (370.07 K, Metastable liquid) was 680.12 ± 2.9 J/K/mol. The “molar heat capacity at constant pressure” value (372.2 K, Crystal) was 556.9 ± 2 J/K/mol.
